The structures appear in SMILES notation.

This is an account of results in ChEMBL document CHEMBL5223187, “A Quantum Mechanics-Based Method to Predict Intramolecular Hydrogen Bond Formation Reflecting P-glycoprotein Recognition” (ACS Med Chem Lett, 2023).

The target of the first data set is Beta-secretase 1 (Homo sapiens, UniProt P56817). Nature of the data set: Inhibition of BACE1 (unknown origin) by HTRF assay.
Beta-secretase 1, sequence (P56817 whole entry): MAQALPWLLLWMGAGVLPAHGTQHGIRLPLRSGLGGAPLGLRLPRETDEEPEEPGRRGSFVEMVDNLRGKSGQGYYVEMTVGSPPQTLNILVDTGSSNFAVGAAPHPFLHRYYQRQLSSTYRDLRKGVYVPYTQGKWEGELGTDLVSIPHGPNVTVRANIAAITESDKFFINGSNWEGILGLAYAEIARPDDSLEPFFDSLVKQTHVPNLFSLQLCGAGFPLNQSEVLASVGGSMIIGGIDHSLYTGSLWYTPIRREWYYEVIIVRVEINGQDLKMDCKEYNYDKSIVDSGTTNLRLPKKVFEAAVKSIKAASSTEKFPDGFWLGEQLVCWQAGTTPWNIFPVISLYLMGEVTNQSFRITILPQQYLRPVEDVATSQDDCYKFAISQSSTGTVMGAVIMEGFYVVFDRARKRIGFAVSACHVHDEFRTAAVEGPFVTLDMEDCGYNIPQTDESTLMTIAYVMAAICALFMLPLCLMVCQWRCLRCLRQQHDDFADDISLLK
Broadly, the IC50 is the concentration that gives 50% inhibition. Regarding `C[C@@]1(c2cc(NC(=O)c3ncc(C#N)cc3F)ccc2F)C=C(CF)OC(N)=N1`, the IC50 came to 155 nM.
As for `COc1cnc(C(=O)Nc2ccc(F)c([C@]3(C)C=C(CF)OC(N)=N3)c2)nc1`, it took 241 nM to reach half-maximal inhibition (IC50).
Same read-out and setting: to `COc1cnc(C(=O)Nc2ccc(F)c([C@]3(C)C=C(CF)OC(N)=N3)c2)c(C)n1` belongs 491 nM.
As for `C[C@@]1(c2cc(NC(=O)c3ccn(C(F)F)n3)ccc2F)C=C(CF)OC(N)=N1`, the IC50 was determined as 82.3 nM.

Tested on in the next data set: not listed separately
Nature of the data set: Apparent permeability in pig LLC-PK1 cells by LC-MS/MS analysis. The data set is classed as ADME, cell-based, Sus scrofa.
As usually defined, the Papp is the rate of passage across a membrane or cell layer, normalised by area and donor concentration. `C[C@@]1(c2cc(-c3cncnc3)c(F)cc2F)CCSC(N)=N1` [LY-2811376]: the Papp was 33 ×10⁻⁶ cm/s.
For the compound `C[C@@]1(c2cc(NC(=O)c3ccc(C#N)cn3)ccc2F)C=CSC(N)=N1` [ATABECESTAT], the Papp amounted to 23 ×10⁻⁶ cm/s.
